# Experimental data taken from patent US9017681B2, “Adenylyl cyclases as novel targets for antibactrial interventions” (Cornell Research Foundation, Inc., priority 2007, dated 2015).
# Entries after “also recorded” stand apart in the source; their conditions may differ. Where two headings read alike, the source gives them in different places.
# Assays:
# [1] = test system: P. aeruginosa CyaB (a Class III adenylyl cyclase); experiment: Pseudomonas adenylyl cyclase assay with purified His-CyaB; type: biochemical, Pseudomonas aeruginosa; settings: increasing concentrations of compound, FIG. 1 / FIG. 2
# Description: (§1) FIG. 1. […] The CyaB was heterologously expressed in E. coli as a poly-histidine tagged fusion protein and purified using a nickel column. Adenylyl cyclase activity was determined by measuring cyclic AMP levels using the Correlate-EIA Direct Cyclic AMP assay kit from Assay Designs as per manufacturers instructions.
# as §1, with “2.” for “1.”
# P. aeruginosa CyaB (a Class III adenylyl cyclase) was heterologously expressed in E. coli as a HIS-tagged, fusion protein. Expression of the fusion protein was induced by Isopropyl β-D-1-thiogalactopyranoside (IPTG) t at 21° C. (empirically found to be best temperature for expression). The His-CyaB fusion protein was purified using a nickel affinity column according to standard protocols in the absence of any reducing agent. Eluted protein was dialyzed into storage buffer consisting of: 50 mM Tris (pH 8.5), 10 mM NaCl, 2 mM MgCl2, and 25% glycerol.
# The purified CyaB was assayed for cyclase activity as follows. […]
# (§2) Cyclic AMP levels were measured in each sample using the Correlate-EIA Direct Cyclic AMP assay kit from Assay Designs as per manufacturers instructions.
# human sAC = target: T1, human sAC (Homo sapiens, UniProt Q96PN6); experiment: in vitro adenylyl cyclase assay with purified human sAC protein (cAMP by Correlate-EIA); type: biochemical; settings: for inhibition at 100 µM: 100 μM of compound
# T1 construct: made in house
# T1 sequence (Q96PN6 1-469 limits assumed): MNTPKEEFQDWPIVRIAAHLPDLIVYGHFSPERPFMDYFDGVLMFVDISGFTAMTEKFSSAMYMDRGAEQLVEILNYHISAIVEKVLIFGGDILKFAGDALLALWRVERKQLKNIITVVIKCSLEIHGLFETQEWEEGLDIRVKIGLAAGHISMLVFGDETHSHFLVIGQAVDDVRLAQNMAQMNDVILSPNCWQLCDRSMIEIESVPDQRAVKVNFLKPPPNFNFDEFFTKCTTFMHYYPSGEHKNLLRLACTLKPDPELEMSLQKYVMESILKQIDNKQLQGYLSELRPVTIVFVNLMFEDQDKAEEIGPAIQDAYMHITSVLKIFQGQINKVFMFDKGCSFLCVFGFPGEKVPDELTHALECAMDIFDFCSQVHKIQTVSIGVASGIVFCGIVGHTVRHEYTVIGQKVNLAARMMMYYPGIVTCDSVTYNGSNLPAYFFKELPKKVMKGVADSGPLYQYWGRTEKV
# Description: Purified human sAC protein was used in an in vitro adenylyl cyclase assay. Purification of the protein is described in detail in Litvin et al. 2003. (J. Biol. Chem. 278:15922-15926). This paper also describes the general conditions for a sAC cyclase assay. The specific conditions for the in vitro assay are as follows.
# For basal sAC activity, an assay master mixture with sufficient volume for all reactions was prepared containing:
# 100 U/ml creatine phosphokinase (CPK)
# An aliquot of the master mixture was added to the purified human sAC. The assay mixture also included the indicated concentration of KH compound, or an equivalent volume of vehicle (i.e., DMSO) as control. The reaction was started by adding 5 mM ATP (total assay volume=100 μL). The reaction mixture was incubated at 30° C. for 30 minutes and then stopped by adding 100 μl […]. Stimulated assay conditions involve adding 40 mM bicarbonate and 5 mM CaCl2 to the above master mixture.
# as §2
smiles,measurement,setting,value
O=C(CSc1nc2ccccc2[nH]1)N/N=C/c1ccc(O)c(O)c1 [KH7.148],effect on CyaB adenylyl cyclase activity,[1],inhibitor; also recorded: decrease in the activity
same,inhibition at 100 µM,"human sAC; BASAL human sAC in vitro activity, read-out: % Inhibition (100 μM), hsACt-Basal",70%
same,inhibition at 100 µM,"human sAC; stimulated human sAC in vitro activity, read-out: % Inhibition (100 μM), hsACt-Stim.",80%
same,IC50,"human sAC; BASAL activity of human sAC in vitro (just Mg-ATP, no calcium or bicarbonate), read-out: hsACt-Basal approximate IC50 (or the dose range where the IC50 should lie)",10 to 100 µM
same,IC50,"human sAC; stimulated activity of human sAC in vitro (calcium and bicarbonate stimulated), read-out: hsACt-Stim. approximate IC50 (or the dose range where the IC50 should lie)",1 to 10 µM
